Tested on: CP50-MEL-B;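 also: growth inhibition of the human cell line, measured with a cell viability read-out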
Experiment: cells
Format: functional, cell-based, Homo sapiens
Settings: Homo sapiens, CP50-MEL-B
Description: SANGER: Inhibition of human CP50-MEL-B cell growth in a cell viability assay.

SMILES | IC50 [µM]
Cn1cnc2c(F)c(Nc3ccc(Br)cc3Cl)c(C(=O)NOCCO)cc21 [SELUMETINIB] | 0.128

Tested on: DBTRG-05MG;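 also: cell viability assay measuring growth inhibition of human DBTRG-05MG cells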
Experiment: cells
Format: functional, cell-based, Homo sapiens
Settings: Homo sapiens, DBTRG-05MG
Description: SANGER: Inhibition of human DBTRG-05MG cell growth in a cell viability assay.

SMILES | IC50 [µM]
Cn1cnc2c(F)c(Nc3ccc(Br)cc3Cl)c(C(=O)NOCCO)cc21 [SELUMETINIB] | > 4

Tested on: DK-MG;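 also: growth inhibition of DK-MG cells, read out with a cell viability assay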
Experiment: cells
Format: functional, cell-based, Homo sapiens
Settings: Homo sapiens, DK-MG
Description: SANGER: Inhibition of human DK-MG cell growth in a cell viability assay.

SMILES | IC50 [µM]
Cn1cnc2c(F)c(Nc3ccc(Br)cc3Cl)c(C(=O)NOCCO)cc21 [SELUMETINIB] | > 4

Tested on: DOK;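 also: cell viability assay read-out, values reflect inhibition of cell growth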
Experiment: cells
Format: functional, cell-based, Homo sapiens
Settings: Homo sapiens, DOK
Description: SANGER: Inhibition of human DOK cell growth in a cell viability assay.

SMILES | IC50 [µM]
Cn1cnc2c(F)c(Nc3ccc(Br)cc3Cl)c(C(=O)NOCCO)cc21 [SELUMETINIB] | 0.147

Tested on: FaDu;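 also: cell viability readout of growth inhibition in FaDu cells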
Experiment: cells
Format: functional, cell-based, Homo sapiens
Settings: Homo sapiens, FaDu
Description: SANGER: Inhibition of human FADU cell growth in a cell viability assay.

SMILES | IC50 [µM]
Cn1cnc2c(F)c(Nc3ccc(Br)cc3Cl)c(C(=O)NOCCO)cc21 [SELUMETINIB] | > 4

Tested on: H-EMC-SS
Experiment: cells
Format: functional, cell-based, Homo sapiens
Settings: Homo sapiens, H-EMC-SS
Description: SANGER: Inhibition of human H-EMC-SS cell growth in a cell viability assay.

SMILES | IC50 [µM]
Cn1cnc2c(F)c(Nc3ccc(Br)cc3Cl)c(C(=O)NOCCO)cc21 [SELUMETINIB] | 0.291

Tested on: HCC38;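 also: cell viability assay on the human HCC38 cell line, with IC50 marking the concentration that inhibits cell growth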
Experiment: cells
Format: functional, cell-based, Homo sapiens
Settings: Homo sapiens, HCC38
Description: SANGER: Inhibition of human HCC38 cell growth in a cell viability assay.

SMILES | IC50 [µM]
Cn1cnc2c(F)c(Nc3ccc(Br)cc3Cl)c(C(=O)NOCCO)cc21 [SELUMETINIB] | > 4

Tested on: HOS;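 also: growth inhibition of human HOS cells, read out with a cell viability assay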
Experiment: cells
Format: functional, cell-based, Homo sapiens
Settings: Homo sapiens, HOS
Description: SANGER: Inhibition of human HOS cell growth in a cell viability assay.

SMILES | IC50 [µM]
Cn1cnc2c(F)c(Nc3ccc(Br)cc3Cl)c(C(=O)NOCCO)cc21 [SELUMETINIB] | > 4

Tested on: HSC-3
Experiment: cells
Format: functional, cell-based, Homo sapiens
Settings: Homo sapiens, HSC-3
Description: SANGER: Inhibition of human HSC-3 cell growth in a cell viability assay.

SMILES | IC50 [µM]
Cn1cnc2c(F)c(Nc3ccc(Br)cc3Cl)c(C(=O)NOCCO)cc21 [SELUMETINIB] | 1.19

Tested on: HT-1080
Experiment: cells
Format: functional, cell-based, Homo sapiens
Settings: Homo sapiens, HT-1080
Description: SANGER: Inhibition of human HT-1080 cell growth in a cell viability assay.

SMILES | IC50 [µM]
Cn1cnc2c(F)c(Nc3ccc(Br)cc3Cl)c(C(=O)NOCCO)cc21 [SELUMETINIB] | 2.43

Tested on: HT-3;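 also: growth inhibition measured with a cell viability readout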
Experiment: cells
Format: functional, cell-based, Homo sapiens
Settings: Homo sapiens, HT-3
Description: SANGER: Inhibition of human HT-3 cell growth in a cell viability assay.

SMILES | IC50 [µM]
Cn1cnc2c(F)c(Nc3ccc(Br)cc3Cl)c(C(=O)NOCCO)cc21 [SELUMETINIB] | > 4

Tested on: HTC-C3;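 also: inhibition of cell growth, read out with a cell viability assay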
Experiment: cells
Format: functional, cell-based, Homo sapiens
Settings: Homo sapiens, HTC-C3
Description: SANGER: Inhibition of human HTC-C3 cell growth in a cell viability assay.

SMILES | IC50 [µM]
Cn1cnc2c(F)c(Nc3ccc(Br)cc3Cl)c(C(=O)NOCCO)cc21 [SELUMETINIB] | 0.215

Tested on: HuO9;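 also: growth inhibition of HuO9 cells, read out with a cell viability assay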
Experiment: cells
Format: functional, cell-based, Homo sapiens
Settings: Homo sapiens, HuO9
Description: SANGER: Inhibition of human HuO9 cell growth in a cell viability assay.

SMILES | IC50 [µM]
Cn1cnc2c(F)c(Nc3ccc(Br)cc3Cl)c(C(=O)NOCCO)cc21 [SELUMETINIB] | > 4

Tested on: MC-IXC;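 also: growth inhibition of MC-IXC cells, read out with a cell viability assay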
Experiment: cells
Format: functional, cell-based, Homo sapiens
Settings: Homo sapiens, MC-IXC
Description: SANGER: Inhibition of human MC-IXC cell growth in a cell viability assay.

SMILES | IC50 [µM]
Cn1cnc2c(F)c(Nc3ccc(Br)cc3Cl)c(C(=O)NOCCO)cc21 [SELUMETINIB] | > 4

Tested on: MHH-ES-1;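 also: cell growth inhibition measured by a cell viability assay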
Experiment: cells
Format: functional, cell-based, Homo sapiens
Settings: Homo sapiens, MHH-ES-1
Description: SANGER: Inhibition of human MHH-ES-1 cell growth in a cell viability assay.

SMILES | IC50 [µM]
Cn1cnc2c(F)c(Nc3ccc(Br)cc3Cl)c(C(=O)NOCCO)cc21 [SELUMETINIB] | > 4

Tested on: NCI-H1563;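 also: growth inhibition of human NCI-H1563 cells, read out with a cell viability assay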
Experiment: cells
Format: functional, cell-based, Homo sapiens
Settings: Homo sapiens, NCI-H1563
Description: SANGER: Inhibition of human NCI-H1563 cell growth in a cell viability assay.

SMILES | IC50 [µM]
Cn1cnc2c(F)c(Nc3ccc(Br)cc3Cl)c(C(=O)NOCCO)cc21 [SELUMETINIB] | > 4

Tested on: NCI-H2029;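 also: Read-out is a viability assay on the cultured cells, and IC50 is the concentration that suppresses cell growth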
Experiment: cells
Format: functional, cell-based, Homo sapiens
Settings: Homo sapiens, NCI-H2029
Description: SANGER: Inhibition of human NCI-H2029 cell growth in a cell viability assay.

SMILES | IC50 [µM]
Cn1cnc2c(F)c(Nc3ccc(Br)cc3Cl)c(C(=O)NOCCO)cc21 [SELUMETINIB] | > 4

Tested on: NCI-H2052;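 also: growth inhibition of NCI-H2052 cells, read out with a cell viability assay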
Experiment: cells
Format: functional, cell-based, Homo sapiens
Settings: Homo sapiens, NCI-H2052
Description: SANGER: Inhibition of human NCI-H2052 cell growth in a cell viability assay.

SMILES | IC50 [µM]
Cn1cnc2c(F)c(Nc3ccc(Br)cc3Cl)c(C(=O)NOCCO)cc21 [SELUMETINIB] | > 4

Tested on: NCI-H292;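 also: growth inhibition of NCI-H292 cells, read out with a cell viability assay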
Experiment: cells
Format: functional, cell-based, Homo sapiens
Settings: Homo sapiens, NCI-H292
Description: SANGER: Inhibition of human NCI-H292 cell growth in a cell viability assay.

SMILES | IC50 [µM]
Cn1cnc2c(F)c(Nc3ccc(Br)cc3Cl)c(C(=O)NOCCO)cc21 [SELUMETINIB] | 1.12

Tested on: OC-314
Experiment: cells
Format: functional, cell-based, Homo sapiens
Settings: Homo sapiens, OC-314
Description: SANGER: Inhibition of human OC-314 cell growth in a cell viability assay.

SMILES | IC50 [µM]
Cn1cnc2c(F)c(Nc3ccc(Br)cc3Cl)c(C(=O)NOCCO)cc21 [SELUMETINIB] | > 4

Tested on: PANC-08-13;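 also: cell growth inhibition, measured with a cell viability assay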
Experiment: cells
Format: functional, cell-based, Homo sapiens
Settings: Homo sapiens, PANC-08-13
Description: SANGER: Inhibition of human PANC-08-13 cell growth in a cell viability assay.

SMILES | IC50 [µM]
Cn1cnc2c(F)c(Nc3ccc(Br)cc3Cl)c(C(=O)NOCCO)cc21 [SELUMETINIB] | > 4

Tested on: RT-112
Experiment: cells
Format: functional, cell-based, Homo sapiens
Settings: Homo sapiens, RT-112
Description: SANGER: Inhibition of human RT-112 cell growth in a cell viability assay.

SMILES | IC50 [µM]
Cn1cnc2c(F)c(Nc3ccc(Br)cc3Cl)c(C(=O)NOCCO)cc21 [SELUMETINIB] | 2.26

Tested on: SNU-387
Experiment: cells
Format: functional, cell-based, Homo sapiens
Settings: Homo sapiens, SNU-387
Description: SANGER: Inhibition of human SNU-387 cell growth in a cell viability assay.

SMILES | IC50 [µM]
Cn1cnc2c(F)c(Nc3ccc(Br)cc3Cl)c(C(=O)NOCCO)cc21 [SELUMETINIB] | > 4

Tested on: SW1783;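 also: cell growth inhibition measured with a viability assay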
Experiment: cells
Format: functional, cell-based, Homo sapiens
Settings: Homo sapiens, SW1783
Description: SANGER: Inhibition of human SW1783 cell growth in a cell viability assay.

SMILES | IC50 [µM]
Cn1cnc2c(F)c(Nc3ccc(Br)cc3Cl)c(C(=O)NOCCO)cc21 [SELUMETINIB] | > 4

Tested on: 786-0
Experiment: cells
Format: functional, cell-based, Homo sapiens
Settings: Homo sapiens
Description: SANGER: Inhibition of human 786-0 cell growth in a cell viability assay.

SMILES | IC50 [µM]
Cn1cnc2c(F)c(Nc3ccc(Br)cc3Cl)c(C(=O)NOCCO)cc21 [SELUMETINIB] | > 4

Tested on: A204;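 also: growth inhibition of human A204 cells, read out with a cell viability assay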
Experiment: cells
Format: functional, cell-based, Homo sapiens
Settings: Homo sapiens, A204
Description: SANGER: Inhibition of human A204 cell growth in a cell viability assay.

SMILES | IC50 [µM]
Cn1cnc2c(F)c(Nc3ccc(Br)cc3Cl)c(C(=O)NOCCO)cc21 [SELUMETINIB] | 1.52

Tested on: A-431;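 also: growth inhibition of A-431 cells, determined with a cell viability read-out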
Experiment: cells
Format: functional, cell-based, Homo sapiens
Settings: Homo sapiens, A-431
Description: SANGER: Inhibition of human A431 cell growth in a cell viability assay.

SMILES | IC50 [µM]
Cn1cnc2c(F)c(Nc3ccc(Br)cc3Cl)c(C(=O)NOCCO)cc21 [SELUMETINIB] | > 4

Tested on: ABC-1;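 also: growth inhibition of human ABC-1 cells, read out by a cell viability assay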
Experiment: cells
Format: functional, cell-based, Homo sapiens
Settings: Homo sapiens, ABC-1
Description: SANGER: Inhibition of human ABC-1 cell growth in a cell viability assay.

SMILES | IC50 [µM]
Cn1cnc2c(F)c(Nc3ccc(Br)cc3Cl)c(C(=O)NOCCO)cc21 [SELUMETINIB] | > 4

Tested on: AN3-CA;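 also: growth inhibition of human AN3-CA cells measured by a cell viability assay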
Experiment: cells
Format: functional, cell-based, Homo sapiens
Settings: Homo sapiens, AN3-CA
Description: SANGER: Inhibition of human AN3-CA cell growth in a cell viability assay.

SMILES | IC50 [µM]
Cn1cnc2c(F)c(Nc3ccc(Br)cc3Cl)c(C(=O)NOCCO)cc21 [SELUMETINIB] | > 4

Tested on: BCPAP;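 also: growth inhibition of BCPAP cells, read out in a cell viability assay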
Experiment: cells
Format: functional, cell-based, Homo sapiens
Settings: Homo sapiens, BCPAP
Description: SANGER: Inhibition of human BCPAP cell growth in a cell viability assay.

SMILES | IC50 [µM]
Cn1cnc2c(F)c(Nc3ccc(Br)cc3Cl)c(C(=O)NOCCO)cc21 [SELUMETINIB] | 2.13

Tested on: BHY;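 also: cell growth inhibition read out by a viability assay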
Experiment: cells
Format: functional, cell-based, Homo sapiens
Settings: Homo sapiens, BHY
Description: SANGER: Inhibition of human BHY cell growth in a cell viability assay.

SMILES | IC50 [µM]
Cn1cnc2c(F)c(Nc3ccc(Br)cc3Cl)c(C(=O)NOCCO)cc21 [SELUMETINIB] | 1.81

Tested on: BT-20;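 also: cell viability assay measuring suppression of growth in human BT-20 cells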
Experiment: cells
Format: functional, cell-based, Homo sapiens
Settings: Homo sapiens, BT-20
Description: SANGER: Inhibition of human BT-20 cell growth in a cell viability assay.

SMILES | IC50 [µM]
Cn1cnc2c(F)c(Nc3ccc(Br)cc3Cl)c(C(=O)NOCCO)cc21 [SELUMETINIB] | > 4

Tested on: C-33-A;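 also: cell viability assay measuring growth inhibition of C-33-A cells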
Experiment: cells
Format: functional, cell-based, Homo sapiens
Settings: Homo sapiens, C-33-A
Description: SANGER: Inhibition of human C-33-A cell growth in a cell viability assay.

SMILES | IC50 [µM]
Cn1cnc2c(F)c(Nc3ccc(Br)cc3Cl)c(C(=O)NOCCO)cc21 [SELUMETINIB] | > 4

Tested on: VMRC-RCZ;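 also: growth inhibition measured with a cell viability assay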
Experiment: cells
Format: functional, cell-based, Homo sapiens
Settings: Homo sapiens, VMRC-RCZ
Description: SANGER: Inhibition of human VMRC-RCZ cell growth in a cell viability assay.

SMILES | IC50 [µM]
Cn1cnc2c(F)c(Nc3ccc(Br)cc3Cl)c(C(=O)NOCCO)cc21 [SELUMETINIB] | > 4

Tested on: CHL-1;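 also: cell growth inhibition, read out with a cell viability assay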
Experiment: cells
Format: functional, cell-based, Homo sapiens
Settings: Homo sapiens, CHL-1
Description: SANGER: Inhibition of human CHL-1 cell growth in a cell viability assay.

SMILES | IC50 [µM]
Cn1cnc2c(F)c(Nc3ccc(Br)cc3Cl)c(C(=O)NOCCO)cc21 [SELUMETINIB] | > 4

Tested on: COLO-679
Experiment: cells
Format: functional, cell-based, Homo sapiens
Settings: Homo sapiens, COLO-679
Description: SANGER: Inhibition of human COLO-679 cell growth in a cell viability assay.

SMILES | IC50 [µM]
Cn1cnc2c(F)c(Nc3ccc(Br)cc3Cl)c(C(=O)NOCCO)cc21 [SELUMETINIB] | 0.341

Tested on: COLO-680N;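 also: cell viability assay used to measure inhibition of COLO-680N cell growth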
Experiment: cells
Format: functional, cell-based, Homo sapiens
Settings: Homo sapiens, COLO-680N
Description: SANGER: Inhibition of human COLO-680N cell growth in a cell viability assay.

SMILES | IC50 [µM]
Cn1cnc2c(F)c(Nc3ccc(Br)cc3Cl)c(C(=O)NOCCO)cc21 [SELUMETINIB] | > 4

Reference: ChEMBL document CHEMBL1201861, “Genomics of Drug Sensitity in Cancer screening data, Wellcome Trust Sanger Institute”
